Assay results: patent US12084458B2, “Substituted pyridines, pyridazines, and pyrimidines as TYK2 inhibitors” (Sudo Biosciences Limited, priority 2021, dated 2024)

What was measured:
Format in all cases: cell-based
[1] = system: HEK-Blue IL-23 cells (IL-23-stimulated STAT3 SEAP reporter; TYK2 JH2); assay: HEK-Blue IL-23 SEAP reporter assay for profiling TYK2 pseudokinase (JH2) inhibition; settings: 10 ng/mL human recombinant IL-23, SEAP reporter, read-out: IL23 (TYK2 inhibitory activity, IC50)
Method in brief: (§1)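 Cells were pretreated 60 min with serially diluted compounds, then stimulated with 10 ng/mL human IL-23 for 22-24 hours (STAT3 line) or 1 ng/mL human IFNα for 16-18 h (STAT1 line). SEAP induction read with QUANTI-Blue.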

[2] = system: HEK-Blue IFNα/β cells (IFNα-stimulated STAT1 SEAP reporter; TYK2 JH2); assay: HEK-Blue IFNα/β SEAP reporter assay for profiling TYK2 pseudokinase (JH2) inhibition; settings: Homo sapiens, HEK-Blue, 1 ng/mL human recombinant IFNα, read-out: IFNα (TYK2 inhibitory activity, IC50)
Method in brief: as §1

[3] = system: HEK-Blue IL-2 reporter cells (IL-2-stimulated STAT5 SEAP reporter); assay: HEK-Blue IL-2 SEAP reporter assay for determining selectivity; settings: 4 ng/mL human recombinant IL-2
Method in brief: (§2)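 Cells were plated for 20-22 h, then pretreated with serially diluted compound for 60 min. They were stimulated for 24 h with 4 ng/mL human recombinant IL-2 or 50 ng/mL human recombinant IFNγ, and SEAP induction was read with QUANTI-Blue.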

[4] = system: HEK-Blue IFNγ reporter cells (IFNγ-stimulated STAT1 SEAP reporter); assay: HEK-Blue IFNγ SEAP reporter assay for determining selectivity; settings: Homo sapiens, HEK-Blue, 50 ng/mL human recombinant IFNγ, read-out: IFN-γ (SEAP selectivity, IC50)
Method in brief: as §2

SMILES | IC50 [1] | IC50 [2] | IC50 [3] | IC50 [4]
[2H]C([2H])([2H])NC(=O)c1cnc(NC(=O)NC)cc1Nc1cc(F)cc2c1N(C)Cc1nc(C)nn1-2 [Compound 101, 4-((8-fluoro-2,5-dimethyl-4,5-dihydro-[1,2,4]triazolo[1,5-a]quinoxalin-6-yl)amino)-N-(methyl-d3)-6-(3-methylureido)nicotinamide] | 30 to 300 nM | 300 to 1000 nM | > 1000 nM | > 1000 nM
[2H]C([2H])([2H])NC(=O)c1cnc(Nc2cc(C)nc(C)n2)cc1Nc1cc(F)cc2c1N(C)Cc1nc(C)nn1-2 [Compound 102, 6-((2,6-dimethylpyrimidin-4-yl)amino)-4-((8-fluoro-2,5-dimethyl-4,5-dihydro-[1,2,4]triazolo[1,5-a]quinoxalin-6-yl)amino)-N-(methyl-d3)nicotinamide] | < 30 nM | < 30 nM | 300 to 1000 nM | 30 to 300 nM
[2H]C([2H])([2H])NC(=O)c1nnc(NC(=O)C2CC2)cc1Nc1ccc(F)c2c1N(C)Cc1nc(C)nn1-2 [Compound 105, 6-(cyclopropanecarboxamido)-4-((9-fluoro-2,5-dimethyl-4,5-dihydro-[1,2,4]triazolo[1,5-a]quinoxalin-6-yl)amino)-N-(methyl-d3)pyridazine-3-carboxamide] | < 30 nM | 30 to 300 nM | > 1000 nM | > 1000 nM
[2H]C([2H])([2H])NC(=O)c1cnc(NC(=O)C2CC2)cc1Nc1ccc(F)c2c1N(C)Cc1nc(C)nn1-2 [Compound 107, 6-(cyclopropanecarboxamido)-4-((9-fluoro-2,5-dimethyl-4,5-dihydro-[1,2,4]triazolo[1,5-a]quinoxalin-6-yl)amino)-N-(methyl-d3)nicotinamide] | < 30 nM | 30 to 300 nM | > 1000 nM | > 1000 nM
[2H]C([2H])([2H])NC(=O)c1nnc(NC(=O)NC)cc1Nc1nccc2c1N(C)Cc1nn(C)nc1-2 [Compound 108, 4-((2,5-dimethyl-4,5-dihydro-2H-[1,2,3]triazolo[4,5-c][1,7]naphthyridin-6-yl)amino)-N-(methyl-d3)-6-(3-methylureido)pyridazine-3-carboxamide] | < 30 nM | < 30 nM | 30 to 300 nM | > 1000 nM
